The target of one test is T1, RORβ (Homo sapiens, UniProt Q92753).
T1 construct: expressed in transfected cells; host or cells: HEK293
T1 sequence (Q92753 1-459 isoform Q92753-1): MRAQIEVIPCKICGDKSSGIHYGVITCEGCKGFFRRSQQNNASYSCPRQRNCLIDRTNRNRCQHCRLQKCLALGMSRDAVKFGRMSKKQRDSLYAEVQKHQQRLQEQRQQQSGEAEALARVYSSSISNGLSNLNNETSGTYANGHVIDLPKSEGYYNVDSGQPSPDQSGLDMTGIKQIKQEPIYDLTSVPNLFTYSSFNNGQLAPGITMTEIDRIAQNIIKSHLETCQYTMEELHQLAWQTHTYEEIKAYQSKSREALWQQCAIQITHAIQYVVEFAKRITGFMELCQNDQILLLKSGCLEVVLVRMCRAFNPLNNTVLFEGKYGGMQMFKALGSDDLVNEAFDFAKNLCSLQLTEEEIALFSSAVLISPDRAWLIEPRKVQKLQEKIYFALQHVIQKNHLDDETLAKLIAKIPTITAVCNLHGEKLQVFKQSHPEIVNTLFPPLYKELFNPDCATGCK
The conditions noted are these: reporter gene assay, HEK293; read-out: RORβ inverse agonistic activity (IC50); cited from earlier work. (Reporter assays use an easily measured gene product as a stand-in for the process of interest.)

Another test deals with T2, RORγ (Homo sapiens, UniProt P51449).
T2 construct: expressed in transfected cells; host or cells: HEK293
T2 sequence (P51449 1-518): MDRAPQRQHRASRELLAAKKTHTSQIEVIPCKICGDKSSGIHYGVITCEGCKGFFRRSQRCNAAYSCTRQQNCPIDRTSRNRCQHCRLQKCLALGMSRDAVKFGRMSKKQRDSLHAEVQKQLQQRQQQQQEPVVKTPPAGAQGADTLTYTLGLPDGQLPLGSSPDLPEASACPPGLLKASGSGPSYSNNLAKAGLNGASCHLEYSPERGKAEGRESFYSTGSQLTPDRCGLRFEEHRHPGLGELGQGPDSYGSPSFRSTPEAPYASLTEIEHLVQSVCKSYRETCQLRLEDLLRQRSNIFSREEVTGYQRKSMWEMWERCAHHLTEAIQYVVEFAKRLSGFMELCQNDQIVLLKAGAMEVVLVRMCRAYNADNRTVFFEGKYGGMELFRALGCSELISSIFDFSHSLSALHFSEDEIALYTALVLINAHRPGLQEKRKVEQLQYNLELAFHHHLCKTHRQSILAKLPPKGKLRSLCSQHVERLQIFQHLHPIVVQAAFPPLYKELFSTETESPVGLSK
The conditions noted are these: reporter gene assay, HEK293; read-out: RORγ inverse agonistic activity (IC50); cited from earlier work.

The target of the next test is T3, AR (Homo sapiens, UniProt P10275).
T3 sequence (P10275 1-920): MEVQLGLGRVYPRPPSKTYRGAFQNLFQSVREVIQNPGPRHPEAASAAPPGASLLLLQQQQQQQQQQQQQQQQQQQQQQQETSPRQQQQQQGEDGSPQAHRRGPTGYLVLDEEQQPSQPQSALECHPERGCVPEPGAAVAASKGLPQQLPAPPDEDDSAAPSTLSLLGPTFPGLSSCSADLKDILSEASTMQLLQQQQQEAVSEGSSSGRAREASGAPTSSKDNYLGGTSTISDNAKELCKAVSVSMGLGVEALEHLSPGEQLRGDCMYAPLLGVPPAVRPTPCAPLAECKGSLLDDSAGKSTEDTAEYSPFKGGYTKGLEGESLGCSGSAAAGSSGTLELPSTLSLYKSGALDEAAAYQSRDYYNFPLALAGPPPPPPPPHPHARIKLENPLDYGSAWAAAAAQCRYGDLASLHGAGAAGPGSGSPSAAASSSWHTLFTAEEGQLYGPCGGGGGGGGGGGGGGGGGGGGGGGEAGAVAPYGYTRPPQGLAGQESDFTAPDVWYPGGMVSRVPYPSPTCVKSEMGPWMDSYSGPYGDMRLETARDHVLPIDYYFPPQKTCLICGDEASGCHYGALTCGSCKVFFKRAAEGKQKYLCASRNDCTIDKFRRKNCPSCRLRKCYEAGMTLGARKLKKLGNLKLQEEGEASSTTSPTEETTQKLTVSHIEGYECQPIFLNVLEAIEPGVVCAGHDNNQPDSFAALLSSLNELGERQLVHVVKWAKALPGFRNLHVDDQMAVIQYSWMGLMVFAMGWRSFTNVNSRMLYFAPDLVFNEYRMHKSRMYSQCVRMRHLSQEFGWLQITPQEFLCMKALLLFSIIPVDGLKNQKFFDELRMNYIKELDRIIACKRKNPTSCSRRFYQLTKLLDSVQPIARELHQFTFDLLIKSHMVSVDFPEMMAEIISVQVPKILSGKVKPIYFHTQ
Kind of test: AR reporter gene assay in HEK293. The test is classed as cell-based. The note with it: reporter gene assay, HEK293; agonist dihydrotestosterone 0.3 nM; read-out: AR antagonistic activity (IC50), AR reporter gene.

The target of the next test is T4, RORα (Homo sapiens, UniProt P35398).
T4 construct: expressed in transfected cells; host or cells: HEK293
T4 sequence (P35398 1-523): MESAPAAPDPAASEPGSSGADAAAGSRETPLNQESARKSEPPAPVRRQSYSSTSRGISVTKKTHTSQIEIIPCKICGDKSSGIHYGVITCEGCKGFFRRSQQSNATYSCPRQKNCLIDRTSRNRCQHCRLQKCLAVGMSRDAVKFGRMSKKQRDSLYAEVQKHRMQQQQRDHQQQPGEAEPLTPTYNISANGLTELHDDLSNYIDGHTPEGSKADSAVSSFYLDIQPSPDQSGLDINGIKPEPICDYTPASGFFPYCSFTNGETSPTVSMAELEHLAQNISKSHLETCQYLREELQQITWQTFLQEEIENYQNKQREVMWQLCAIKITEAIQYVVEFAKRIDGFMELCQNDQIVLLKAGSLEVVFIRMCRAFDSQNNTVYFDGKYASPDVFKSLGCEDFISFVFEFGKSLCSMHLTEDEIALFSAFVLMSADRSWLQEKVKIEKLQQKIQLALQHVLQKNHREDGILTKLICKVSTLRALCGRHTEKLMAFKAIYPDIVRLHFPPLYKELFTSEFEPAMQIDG
The note with it: reporter gene assay, HEK293; read-out: RORα inverse agonistic activity (IC50); cited from earlier work.

A further test has as its target T5, LXRβ (Homo sapiens, UniProt P55055).
T5 construct: CMX-GAL4N-hLXRβ-LBD; expressed in transfected cells; host or cells: HEK293
T5 sequence (P55055 222-460 limits assumed): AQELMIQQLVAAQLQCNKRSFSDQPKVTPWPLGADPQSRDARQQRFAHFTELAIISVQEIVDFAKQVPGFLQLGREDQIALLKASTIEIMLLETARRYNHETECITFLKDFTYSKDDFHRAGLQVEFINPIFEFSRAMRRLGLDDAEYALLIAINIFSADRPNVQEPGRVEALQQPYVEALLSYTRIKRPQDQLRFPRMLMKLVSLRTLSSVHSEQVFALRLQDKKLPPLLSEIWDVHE
The experiment in a line: LXRβ reporter gene assay in HEK293. The conditions noted are these: read-out: LXRβ antagonistic activity (IC50). The test is classed as cell-based.

Another test addresses T6, LXRα (Homo sapiens, UniProt Q13133).
T6 construct: CMX-GAL4N-hLXRα-LBD; expressed in transfected cells; host or cells: HEK293
T6 sequence (Q13133 209-447 limits assumed): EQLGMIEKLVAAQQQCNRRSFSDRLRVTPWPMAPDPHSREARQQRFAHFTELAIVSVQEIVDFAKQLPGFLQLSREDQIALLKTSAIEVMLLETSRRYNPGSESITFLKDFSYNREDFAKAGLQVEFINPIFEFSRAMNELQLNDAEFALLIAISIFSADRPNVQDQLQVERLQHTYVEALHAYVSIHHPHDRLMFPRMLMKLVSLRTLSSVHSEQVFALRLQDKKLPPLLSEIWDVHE
Kind of test: LXRα reporter gene assay in HEK293. It counts as cell-based. The note with it: read-out: LXRα antagonistic activity (IC50).

Another test concerns the target T7, GR (Homo sapiens, UniProt P04150).
T7 construct: expressed in transfected cells; host or cells: HEK293
T7 sequence (P04150 1-777): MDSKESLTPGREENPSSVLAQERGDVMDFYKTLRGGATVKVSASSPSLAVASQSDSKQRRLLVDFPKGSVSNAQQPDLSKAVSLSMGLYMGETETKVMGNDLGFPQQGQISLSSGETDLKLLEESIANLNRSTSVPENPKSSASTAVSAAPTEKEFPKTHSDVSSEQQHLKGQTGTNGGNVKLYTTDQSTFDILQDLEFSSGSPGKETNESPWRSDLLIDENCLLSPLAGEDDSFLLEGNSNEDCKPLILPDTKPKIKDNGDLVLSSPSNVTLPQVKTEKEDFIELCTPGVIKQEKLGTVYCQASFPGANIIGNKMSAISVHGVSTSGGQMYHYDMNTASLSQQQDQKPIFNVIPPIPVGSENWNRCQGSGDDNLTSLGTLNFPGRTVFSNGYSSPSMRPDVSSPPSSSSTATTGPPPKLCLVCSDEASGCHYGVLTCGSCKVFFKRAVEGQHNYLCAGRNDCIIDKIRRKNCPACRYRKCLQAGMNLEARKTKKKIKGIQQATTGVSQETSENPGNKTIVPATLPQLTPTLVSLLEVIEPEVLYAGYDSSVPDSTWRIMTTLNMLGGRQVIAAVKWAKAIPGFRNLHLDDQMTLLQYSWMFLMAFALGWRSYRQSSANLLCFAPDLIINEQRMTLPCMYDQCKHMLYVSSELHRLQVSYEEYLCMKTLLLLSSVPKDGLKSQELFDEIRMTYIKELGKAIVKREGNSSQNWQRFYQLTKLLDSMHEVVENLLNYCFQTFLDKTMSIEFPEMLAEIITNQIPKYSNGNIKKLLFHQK
The experiment in a line: GR reporter gene assay in HEK293. The test is classed as cell-based. The conditions noted are these: reporter gene assay, HEK293; agonist dexamethasone 1 nM; read-out: GR antagonistic activity (IC50).

Another test concerns the target T8, PR (Homo sapiens, UniProt P06401).
T8 sequence (P06401 1-933): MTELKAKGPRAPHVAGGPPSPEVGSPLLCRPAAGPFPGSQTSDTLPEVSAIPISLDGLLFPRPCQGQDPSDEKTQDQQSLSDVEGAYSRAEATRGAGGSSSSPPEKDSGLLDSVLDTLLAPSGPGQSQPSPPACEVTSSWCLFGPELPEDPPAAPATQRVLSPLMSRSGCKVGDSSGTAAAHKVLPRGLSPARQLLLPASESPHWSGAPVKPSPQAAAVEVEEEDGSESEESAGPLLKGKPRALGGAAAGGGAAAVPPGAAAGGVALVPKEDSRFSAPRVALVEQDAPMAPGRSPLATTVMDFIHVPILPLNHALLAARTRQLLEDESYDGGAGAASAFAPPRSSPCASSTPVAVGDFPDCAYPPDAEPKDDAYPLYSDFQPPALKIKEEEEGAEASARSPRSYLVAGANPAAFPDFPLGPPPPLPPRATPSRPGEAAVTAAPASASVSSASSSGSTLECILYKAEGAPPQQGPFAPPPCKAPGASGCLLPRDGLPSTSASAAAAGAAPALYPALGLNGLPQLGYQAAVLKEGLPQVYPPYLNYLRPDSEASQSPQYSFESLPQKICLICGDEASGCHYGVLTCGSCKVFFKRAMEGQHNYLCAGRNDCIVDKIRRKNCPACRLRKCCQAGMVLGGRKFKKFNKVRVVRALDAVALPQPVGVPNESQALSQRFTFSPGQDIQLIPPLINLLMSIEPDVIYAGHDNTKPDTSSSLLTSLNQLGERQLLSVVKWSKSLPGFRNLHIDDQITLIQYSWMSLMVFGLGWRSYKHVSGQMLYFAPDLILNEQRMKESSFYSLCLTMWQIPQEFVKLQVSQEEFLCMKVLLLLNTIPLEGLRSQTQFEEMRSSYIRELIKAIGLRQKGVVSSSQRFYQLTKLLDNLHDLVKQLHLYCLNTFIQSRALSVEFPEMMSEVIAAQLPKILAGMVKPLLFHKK
The conditions noted are these: alkaline phosphatase, T47D cells, progesterone 1 nM; read-out: PR antagonistic activity (IC50); cited from earlier work.

The term IC50 denotes the concentration that gives 50% inhibition.

On to `Cc1cc(C(O)(C(F)(F)F)C(F)(F)F)cc2c3ccc(F)cc3c(=O)n(C)c12` [Compound 3], for which the concentration for half-maximal inhibition (IC50) on RORβ was greater than 20 µM; at RORγ, greater than 20 µM; at AR, 0.3 µM; at RORα, greater than 20 µM.

On to `CCCCn1c(=O)c2ccccc2c2cc(C)ccc21` [Compound 8], for which the IC50 is 17 µM at RORγ; 16 µM at LXRβ; 11 µM on AR; 17 µM at LXRα; 18 µM at RORα; greater than 20 µM at GR.

Turning to `CCCCn1c(=O)c2ccccc2c2cc(CC)ccc21` [Compound 9], the 50% inhibitory concentration (IC50) on LXRβ was 16 µM; at AR it was 19 µM; on LXRα, 17 µM; on GR it was 19 µM.

On to `CCCn1c(=O)c2ccccc2c2cc(C(O)(C(F)(F)F)C(F)(F)F)ccc21` [Compound 15], for which the IC50 on LXRβ was 6.9 µM; at AR, 5.6 µM; at LXRα it was 12 µM; on RORα, 11 µM; at GR it was 17 µM.

For `CCCCCCn1c(=O)c2ccccc2c2cc(C(O)(C(F)(F)F)C(F)(F)F)ccc21` [Compound 16], the half-inhibitory concentration (IC50) is 10 µM at LXRβ, 4 µM at AR, 16 µM at LXRα and greater than 20 µM on GR.

For `CCCCn1c(=O)c2ccc(O)cc2c2cc(C(O)(C(F)(F)F)C(F)(F)F)ccc21` [Compound 38], the IC50 is greater than 3 µM at AR, 7 µM at LXRα, 5.1 µM on PR and greater than 20 µM on GR.

Regarding `Cc1cc(C(O)(C(F)(F)F)C(F)(F)F)cc2c1[nH]c(=O)c1ccccc12` [Compound 40], the IC50 at RORβ, on RORγ and at RORα was greater than 20 µM in each case.

Take `Cc1cc(C(O)(C(F)(F)F)C(F)(F)F)cc2c1[nH]c(=O)c1cc(F)ccc12` [Compound 44]: the IC50 at RORβ was greater than 20 µM; on RORγ, greater than 20 µM; at LXRβ, greater than 20 µM; at AR it was 1.7 µM; on RORα, greater than 20 µM.

Values taken from PMC6073568, “Efficient Lead Finding, Activity Enhancement and Preliminary Selectivity Control of Nuclear Receptor Ligands Bearing a Phenanthridinone Skeleton” (International Journal of Molecular Sciences, 2018).
